# Test results reported in patent US20230322805A1, “NOVEL PYRIMIDODIAZEPINE DERIVATIVES OR USES THEREOF” (SPARK BIOPHARMA, INC., priority 2020, published 2023).
# Columns and labels:
# [1] = system: LC3-1 to LC3-II conversion (autophagy); test: Immunoblot of LC3-1 to LC3-II conversion and p62 in HEK293 BiFC-tau cells; assay type: cell-based, human; conditions: 5 μM SB1617, presence or absence of 500 nM TG, 6 hours
# TBI mouse model = test: Controlled cortical impact TBI mouse model; assay type: in vivo
# Protocol: CD-1 (ICR) male mice (2-3 months old, 25-35 g body weight; DBL, Korea) were used in the TBI study. […] All mice were fed water and food ad libitum. In order to avoid and minimize transport-related stress, experiments were initiated after a period of one week following transport to allow the animals to acclimatize to environmental conditions.
# An experimental controlled cortical impact (CCI) model for TBI was performed as follows. Using an isoflurane vaporizer (VetEquip), the mouse was deeply anesthetized with isoflurane inhaled at 3% in a mixture of 70:30 nitrous oxide and oxygen, and placed in a stereotaxic apparatus. […] An approximately 4 mm incision was made in the right hemisphere using a hand-held drill (midline 2 mm, bregma 1 mm). A controlled cortical impact device (Leica Impact One, Leica Biosystems) was used to accelerate an impact device equipped with a 2 mm flat-tip at a speed of 5 m/sec to a depth of 1.4 mm. […] Traumatic brain injury animal models were randomly generated according to an online randomization tool (randomizer.org). Sham-operated groups performed only craniotomy.
# Control mice were intraperitoneally administered with the same volume of vehicle.
# Mice were deeply anesthetized by intraperitoneal administration of a mixture of urethane (1.5 g/kg) in saline (0.9% NaCl) at 0.01 mL/g per body weight. The effect of anesthesia was assessed using a toe pinch. Subsequently, saline was perfused into the heart of the mouse, and PBS was mixed with 4% paraformaldehyde and then perfused. Brains were fixed in 4% paraformaldehyde for 1 h and immersed in 30% sucrose for cryoprotection. Then, whole brains were frozen and […] sections were formed on a cryostat microtome (CM1850, Leica) with a thickness of 30 μm.
# After washing in PBS, sections were incubated overnight with a mouse monoclonal anti-NeuN antibody (1:500 dilution, Millipore) in PBS containing 0.3% Triton X-100 at 4° C. to assess neuronal loss after TBI. After washing with PBS, sections were incubated in biotinylated anti-mouse IgG (1:250 dilution, Vector) at room temperature for 2 hours […] to detect NeuN antibody and biotinylated anti-rat IgG (1:250 dilution, Vector) to examine the degree of leakage of endogenous immunoglobulin G. Then, the sections were immersed in an avidin-biotin-peroxidase complex (Vector) for 2 hours at room temperature. Between incubations, sections were washed with PBS. […] Immunoreactivity was observed under an Olympus IX70 inverted microscope.
# Immunofluorescence labeling was performed according to a conventionally known general immunostaining procedure. […] After washing with PBS, the sections were incubated with each specific type of polyclonal or monoclonal primary antibody with PBS containing 0.3% Triton X-100 overnight at 4° C.
# The primary antibodies used in this test are the same as follows: • mouse monoclonal anti-4-hydroxynonenal (4-HNE; diluted 1:500; Alpha Diagnostic International), • mouse monoclonal anti-Tau (Tau5; diluted 1:500; Abcam), • mouse monoclonal anti-phospho Tau (Ser202, Thr205; AT8; diluted 1:200; Invitrogen), • mouse monoclonal anti-PDI (diluted 1:100; Abcam), • rabbit polyclonal anti-ERp57 (diluted 1:100; Abcam), and • goat polyclonal anti-Iba-1 antibody (diluted 1:500; Abcam).
# To count NeuN-positive cells, every sixth section was collected posterior to bregma from 1.2 to 2.1 mm at 180 μm intervals. Five coronal sections from each mouse were analyzed using a microscope with a 20×objective. These sections were then coded and provided to a blinded experimenter to count total NeuN-positive cells in hippocampal CA1 and cortex from hippocampal hemispheres. Data were expressed as the average number of NeuN-positive cells per area. To quantify the PDI-, ERp57-, Tau5-, AT8-, and 4HNE- immunofluorescence intensities, five coronal sections were evaluated by a blinded experimenter using ImageJ (National Institute of Health).
# [2] = after TBI induction, versus vehicle
# [3] = ipsilateral perilesional cortex, 12 and 24 hours after TBI induction
smiles,measurement,setting,value
CN(Cc1ccc(Cl)cc1)c1ncnc2c1[C@@H]1OC[C@H](CN2)N1S(=O)(=O)c1ccc([N+](=O)[O-])cc1 [Compound 117],conversion from LC3-1 to LC3-II,[1],conversion from light chain 3-1 (LC3-1) to LC3-II was confirmed
same,neurologic severity score (NSS),"TBI mouse model; 1, 4, 24, 48, 72 hours and 7 days after TBI",maintained nerve protection activity
same,"pole climbing test, time to descend the pole",TBI mouse model; [2],significantly reduced
same,"pole climbing test, time to turn the head downward",TBI mouse model; [2],significantly reduced
same,level of microglial activation,"TBI mouse model; ipsilateral hemisphere, after TBI",the activity of microglial cells was improved
same,"total tau and p-tau levels (Tau5, AT8 immunofluorescence)","TBI mouse model; ipsilateral hippocampal CA1 and cortex, 24 hours after TBI, 5 mg/kg, 2 times a day",these symptoms were improved
same,Iba-1 levels (neuroinflammation),"TBI mouse model; ipsilateral hippocampal CA1 and cortex, 72 hours after TBI",could be improved
same,"ER stress and oxidative stress (PDI, ERp57 immunofluorescence)","TBI mouse model; ipsilateral hippocampal CA1 and cortex, 5 mg/kg, 2 times a day",these symptoms were confirmed
same,conversion rate from LC3-1 to LC3-II (Western blotting),TBI mouse model; [3],the conversion rate from LC3-1 to LC3-II was improved
same,p62 protein level (Western blotting),TBI mouse model; [3],an increase in p62 protein level
